Measurements published in patent publication US20190008848A1, “IDENTIFICATION OF ADDITIONAL ANTI-PERSISTER ACTIVITY AGAINST BORRELIA BURGDORFERI FROM AN FDA DRUG LIBRARY” (THE JOHNS HOPKINS UNIVERSITY, priority 2015, published 2019).
Entries after “also recorded” stand apart in the source; their conditions may differ. Read-outs that look alike come from different tables or passages of the source.

Key:
growing B. burgdorferi = experiment: MIC of active hits; format: cell-based, Borrelia burgdorferi
[1] = system: stationary phase B. burgdorferi; experiment: Residual viable B. burgdorferi by epifluorescence microscope counting after drug exposure; details: for viability at 50 µM: Borreliella burgdorferi, 168 h, read-out: Residual viable cells (Microscopy)
Method: (§1) Borrelia burgdorferi strain B31 (ATCC35210) was received from the […] (Manassas, Va., USA) and was grown in BSK-H medium (HiMedia Laboratories, Mumbai, India) and 6% rabbit serum (Sigma Aldrich, St. Louis, Mo., USA). The culture was filtered and sterilized using a […] and incubated in capped sterile 50 mL conical tubes (BD Biosciences, CA, USA) at 33° C. for 7 days without antibiotics until the culture reached stationary phase.
(§2) The cultures were examined using a Nikon Eclipse E800 microscope with differential interference contrast and epifluorescent illumination. The pictures were captured using a SPOT slider color camera. A SYBR Green I/PI assay was used to assess the viability of the bacterial sample using the ratio of live to dead B. burgdorferi (measured with green and red fluorescence, respectively) as measured by a plate reader.
(§3) Briefly, prediluted drug stock (10 μL) was added to 7 day old stationary phase B. burgdorferi culture (90 μL) to achieve a 50 μM final drug concentration per well. The plates were then incubated at 33° C. for 7 days at which point the SYBR/PI rapid viability assay was performed in a fluorescence plate reader to obtain the green-red fluorescence ratio.

[2] = system: stationary phase B. burgdorferi; experiment: SYBR Green I/PI viability assay (drug library screen, plate reader); details: for viability at 50 µM: Borreliella burgdorferi, 168 h; for viability at 50 µM / Residual viable cells (SYBR Green/PI) / Residual viable cells (SYBR/PI): drugs 50 μM; for activity against stationary phase B. burgdorferi (in words): screen at 50 μM, 7 days; for Residual viable cells (SYBR Green/PI): Table 1; for Residual viable cells (SYBR/PI): Table 3
Method: as §1, §2, §3

[3] = Borreliella burgdorferi, read-out: MIC
[4] = read-out: Residual viable cells (SYBR Green/PI), Table 1, 7 day old stationary phase cells treated for 7 days
[5] = read-out: Residual viable cells (SYBR/PI), Table 3, 7-day old stationary phase cells treated for 7 days
[6] = Table 1, drugs 50 μM, 7 day old stationary phase cells treated for 7 days
[7] = Table 3, drugs 50 μM, 7-day old stationary phase cells treated for 7 days
[8] = 7 day old stationary phase cells treated for 7 days
[9] = 7-day old stationary phase cells treated for 7 days

O=C(O)[C@@H]1CCC(O)=N1 (racemic) [Pidolic acid, DL-2-Pyrrolidone-5-Carboxylic Acid]
MIC (growing B. burgdorferi; [3]): 0.81 to 1.61 µg/mL | viability at 50 µM [1]: 45% | viability at 50 µM [2, 4]: 45% | viability at 50 µM [2, 5]: 43% | activity against stationary phase B. burgdorferi (in words) [2]: high activity

CO[C@H]1/C=C/O[C@@]2(C)Oc3c(C)c(O)c4c(O)c(c(C=O)c(O)c4c3C2=O)NC(=O)/C(C)=C\C=C\[C@H](C)[C@H](O)[C@@H](C)[C@@H](O)[C@@H](C)[C@H](OC(C)=O)[C@@H]1C [3-formyl Rifamycin]
MIC (growing B. burgdorferi): 2.27 to 4.54 µg/mL | Residual viable cells (Microscopy) [1, 6]: 59% | Residual viable cells (Microscopy) [1, 7]: 59% | Residual viable cells (SYBR Green/PI) [2, 8]: 42% | Residual viable cells (SYBR/PI) [2, 9]: 42%

CCCCCCCCCCCC[N+](C)(C)Cc1ccccc1 [Benzododecinium chloride]
MIC (growing B. burgdorferi; [3]): 0.6 to 1.2 µg/mL | viability at 50 µM [2, 5]: 40% | activity against stationary phase B. burgdorferi (in words) [2]: very high activities

OC(Cn1cncn1)(Cn1cncn1)c1ccc(F)cc1F [Fluconazole]
MIC (growing B. burgdorferi; [3]): 0.48 to 0.96 µg/mL | viability at 50 µM [1]: 45% | viability at 50 µM [2, 4]: 55% | viability at 50 µM [2, 5]: 55% | activity against stationary phase B. burgdorferi (in words) [2]: reasonable activity

Cc1c(-c2cnccn2)ssc1=S [Oltipraz]
MIC (growing B. burgdorferi; [3]): 0.71 to 1.41 µg/mL | viability at 50 µM [1]: 55% | viability at 50 µM [2, 4]: 46% | viability at 50 µM [2, 5]: 46% | activity against stationary phase B. burgdorferi (in words) [2]: high activity

CCCCCCCCCCCCCCCC[N+](C)(C)CCN(Cc1ccc(OC)cc1)c1ncccn1 [Thonzonium bromide]
MIC (growing B. burgdorferi; [3]): 0.92 to 1.85 µg/mL | viability at 50 µM [1]: 33% | viability at 50 µM [2, 5]: 31% | activity against stationary phase B. burgdorferi (in words) [2]: very high activities; also recorded: comparable activity to daptomycin

Dextrorphan tartrate
MIC (growing B. burgdorferi): 1.27 to 2.55 µg/mL | Residual viable cells (Microscopy) [1, 6]: 43% | Residual viable cells (Microscopy) [1, 7]: 43% | Residual viable cells (SYBR Green/PI) [2, 8]: 47% | Residual viable cells (SYBR/PI) [2, 9]: 47% | activity against stationary phase B. burgdorferi (in words) [2]: high activity

Mepartricin
Residual viable cells (Microscopy) [1, 6]: 60% | Residual viable cells (SYBR Green/PI) [2, 8]: 43% | Residual viable cells (SYBR/PI) [2, 9]: 43% | activity against stationary phase B. burgdorferi (in words) [2]: reasonable activity

Potassium antimonyl tartrate trihydrate [Tartar emetic]
Residual viable cells (Microscopy) [1, 6]: 45% | Residual viable cells (Microscopy) [1, 7]: 45% | Residual viable cells (SYBR Green/PI) [2, 8]: 42% | Residual viable cells (SYBR/PI) [2, 9]: 42%

Verteporfin
MIC (growing B. burgdorferi): 4.49 to 8.98 µg/mL | Residual viable cells (Microscopy) [1]: 47% | activity against stationary phase B. burgdorferi (in words) [2]: high activity
